From PubChem BioAssay (NCI)
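1) Cells in 96-well plates. 2) Compound, 48 h, 5 concentrations. 3) Linear interpolation between surrounding doses. 4) Unreached endpoint = highest concentration. TGI: total growth inhibition.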

Legend:
Experiment in all cases: inhibition of tumour cell growth, NCI panel, 48 h
SK-MEL-28 melanoma = system: SK-MEL-28 melanoma
786-0 renal = system: 786-0 renal
ACHN renal = system: ACHN renal
HT29 colon = system: HT29 colon
NCI-H460 lung = system: NCI-H460 lung
K-562 leukemia = system: K-562 leukemia
EKVX NSCLC = system: EKVX NSCLC
UO-31 renal = system: UO-31 renal
M14 melanoma = system: M14 melanoma
OVCAR-3 ovarian = system: OVCAR-3 ovarian
UACC-257 melanoma = system: UACC-257 melanoma
HCC-2998 colon = system: HCC-2998 colon
MOLT-4 leukemia = system: MOLT-4 leukemia
SN12C renal = system: SN12C renal

SMILES: O=[N+]([O-])c1cc2ccc(N(CCO)CCO)nc2nc1N(CCO)CCO
- TGI (SK-MEL-28 melanoma): > 100 µM
- TGI (786-0 renal): > 100 µM
- TGI (ACHN renal): > 100 µM
- TGI (HT29 colon): > 100 µM
- TGI (NCI-H460 lung): > 100 µM
- TGI (K-562 leukemia): > 100 µM
- TGI (EKVX NSCLC): > 100 µM
- TGI (UO-31 renal): > 100 µM
- TGI (M14 melanoma): > 100 µM
- TGI (OVCAR-3 ovarian): > 100 µM
- TGI (UACC-257 melanoma): > 100 µM
- TGI (HCC-2998 colon): > 100 µM
- TGI (MOLT-4 leukemia): > 100 µM
- TGI (SN12C renal): > 100 µM

SMILES: CC(=O)C(C(C)=O)[C@@H]1OC(C)(C)O[C@@H]1[C@H]1COC(C)(C)O1
- TGI (SK-MEL-28 melanoma): > 100 µM
- TGI (786-0 renal): > 100 µM
- TGI (ACHN renal): > 100 µM
- TGI (HT29 colon): > 100 µM
- TGI (NCI-H460 lung): > 100 µM
- TGI (K-562 leukemia): > 100 µM
- TGI (EKVX NSCLC): 79.1 µM
- TGI (UO-31 renal): > 100 µM
- TGI (M14 melanoma): > 100 µM
- TGI (OVCAR-3 ovarian): > 100 µM
- TGI (UACC-257 melanoma): > 100 µM
- TGI (HCC-2998 colon): > 100 µM
- TGI (MOLT-4 leukemia): > 100 µM
- TGI (SN12C renal): 44.9 µM

SMILES: Cn1c2ccccc2c2cc(N3CCCC3)c3c(c21)C(=O)N(c1ccccc1)C3=O
- TGI (SK-MEL-28 melanoma): > 100 µM
- TGI (786-0 renal): 95.5 µM
- TGI (ACHN renal): > 100 µM
- TGI (HT29 colon): > 100 µM
- TGI (NCI-H460 lung): > 100 µM
- TGI (K-562 leukemia): > 100 µM
- TGI (EKVX NSCLC): > 100 µM
- TGI (UO-31 renal): > 100 µM
- TGI (M14 melanoma): > 100 µM
- TGI (OVCAR-3 ovarian): > 100 µM
- TGI (UACC-257 melanoma): > 100 µM
- TGI (HCC-2998 colon): > 100 µM
- TGI (MOLT-4 leukemia): > 100 µM
- TGI (SN12C renal): > 100 µM

SMILES: Cc1c(C)c(C)c(-n2c(=O)n(C)c(=O)n2-c2cc(C(C)(C)C)cc(C(C)(C)C)c2O)c(C)c1C
- TGI (SK-MEL-28 melanoma): 28 µM
- TGI (786-0 renal): 22.4 µM
- TGI (ACHN renal): 24.8 µM
- TGI (HT29 colon): 15.9 µM
- TGI (NCI-H460 lung): 27.1 µM
- TGI (K-562 leukemia): 27.2 µM
- TGI (EKVX NSCLC): 22.8 µM
- TGI (UO-31 renal): 14.1 µM
- TGI (M14 melanoma): 25.9 µM
- TGI (OVCAR-3 ovarian): 19.3 µM
- TGI (UACC-257 melanoma): 23.9 µM
- TGI (HCC-2998 colon): 24.6 µM
- TGI (MOLT-4 leukemia): 19.3 µM
- TGI (SN12C renal): 21.7 µM

SMILES: C/C=C(\C)C(=O)O[C@@H]1CC(C)(C)CC2C3=CCC4[C@]56CC[C@](O)(OC5)C(C)(C)C6CC[C@@]4(C)C3(C)CC[C@]21C(=O)O (stereo partly specified)
- TGI (SK-MEL-28 melanoma): > 100 µM
- TGI (786-0 renal): > 100 µM
- TGI (ACHN renal): > 100 µM
- TGI (HT29 colon): > 100 µM
- TGI (NCI-H460 lung): > 100 µM
- TGI (K-562 leukemia): > 100 µM
- TGI (EKVX NSCLC): > 100 µM
- TGI (M14 melanoma): > 100 µM
- TGI (OVCAR-3 ovarian): > 100 µM
- TGI (UACC-257 melanoma): > 100 µM
- TGI (HCC-2998 colon): > 100 µM
- TGI (MOLT-4 leukemia): > 100 µM
- TGI (SN12C renal): > 100 µM

SMILES: COc1ccc(-c2ncn(C[Si](C)(C)C)c2-c2ccc(OC)cc2)cc1
- TGI (SK-MEL-28 melanoma): 14.8 µM
- TGI (786-0 renal): 18.7 µM
- TGI (ACHN renal): 20.5 µM
- TGI (HT29 colon): 10.8 µM
- TGI (NCI-H460 lung): 15.3 µM
- TGI (K-562 leukemia): 10.6 µM
- TGI (EKVX NSCLC): 12.1 µM
- TGI (UO-31 renal): 10 µM
- TGI (M14 melanoma): 14.8 µM
- TGI (UACC-257 melanoma): 16.7 µM
- TGI (HCC-2998 colon): 7.34 µM
- TGI (MOLT-4 leukemia): 4.22 µM
- TGI (SN12C renal): 24.3 µM

SMILES: O=c1[nH]c2nccn2c2c1SCCN2
- TGI (SK-MEL-28 melanoma): > 100 µM
- TGI (786-0 renal): > 100 µM
- TGI (ACHN renal): > 100 µM
- TGI (HT29 colon): > 100 µM
- TGI (NCI-H460 lung): > 100 µM
- TGI (K-562 leukemia): > 100 µM
- TGI (EKVX NSCLC): > 100 µM
- TGI (M14 melanoma): > 100 µM
- TGI (OVCAR-3 ovarian): > 100 µM
- TGI (UACC-257 melanoma): > 100 µM
- TGI (HCC-2998 colon): > 100 µM
- TGI (MOLT-4 leukemia): > 100 µM
- TGI (SN12C renal): > 100 µM

SMILES: O=C(N/N=C\c1cccc2ccccc12)Nc1cccc2ccccc12
- TGI (SK-MEL-28 melanoma): > 100 µM
- TGI (786-0 renal): 28.1 µM
- TGI (ACHN renal): > 100 µM
- TGI (HT29 colon): > 100 µM
- TGI (NCI-H460 lung): > 100 µM
- TGI (K-562 leukemia): 15.6 µM
- TGI (EKVX NSCLC): > 100 µM
- TGI (UO-31 renal): > 100 µM
- TGI (M14 melanoma): > 100 µM
- TGI (UACC-257 melanoma): > 100 µM
- TGI (HCC-2998 colon): > 100 µM
- TGI (SN12C renal): > 100 µM

SMILES: CCN(CC)CC1CN=C(N)O1 (stereo unspecified)
- TGI (SK-MEL-28 melanoma): > 100 µM
- TGI (786-0 renal): > 100 µM
- TGI (ACHN renal): > 100 µM
- TGI (NCI-H460 lung): > 100 µM
- TGI (K-562 leukemia): > 100 µM
- TGI (EKVX NSCLC): > 100 µM
- TGI (UO-31 renal): > 100 µM
- TGI (M14 melanoma): > 100 µM
- TGI (OVCAR-3 ovarian): > 100 µM
- TGI (UACC-257 melanoma): > 100 µM
- TGI (HCC-2998 colon): > 100 µM
- TGI (MOLT-4 leukemia): > 100 µM
- TGI (SN12C renal): > 100 µM

SMILES: C=CCOC(=O)N1c2ccc(O)cc2[C@@]23O[C@@]24[C@@H]1C#C/C=C\C#C[C@]3(O)C(OC)(OC)C[C@@H]4C
- TGI (SK-MEL-28 melanoma): > 100 µM
- TGI (786-0 renal): 78.3 µM
- TGI (ACHN renal): 72.3 µM
- TGI (HT29 colon): 49.8 µM
- TGI (NCI-H460 lung): 83.3 µM
- TGI (K-562 leukemia): > 100 µM
- TGI (EKVX NSCLC): > 100 µM
- TGI (UO-31 renal): > 100 µM
- TGI (M14 melanoma): 79.9 µM
- TGI (UACC-257 melanoma): 44.1 µM
- TGI (HCC-2998 colon): > 100 µM
- TGI (MOLT-4 leukemia): > 100 µM
- TGI (SN12C renal): 61.6 µM

SMILES: COc1cc(C2C3=C(CCCC3=O)N(c3ccc(C)cc3)C3=C2C(=O)CCC3)c([N+](=O)[O-])cc1OC
- TGI (SK-MEL-28 melanoma): > 100 µM
- TGI (786-0 renal): > 100 µM
- TGI (ACHN renal): > 100 µM
- TGI (HT29 colon): > 100 µM
- TGI (NCI-H460 lung): > 100 µM
- TGI (K-562 leukemia): > 100 µM
- TGI (EKVX NSCLC): > 100 µM
- TGI (UO-31 renal): > 100 µM
- TGI (M14 melanoma): > 100 µM
- TGI (OVCAR-3 ovarian): > 100 µM
- TGI (HCC-2998 colon): > 100 µM
- TGI (MOLT-4 leukemia): > 100 µM
- TGI (SN12C renal): > 100 µM

SMILES: CCN(CC)c1ccc(/C=C2\CCc3ccc([N+](=O)[O-])cc3C2=O)cc1
- TGI (SK-MEL-28 melanoma): > 100 µM
- TGI (786-0 renal): > 100 µM
- TGI (ACHN renal): > 100 µM
- TGI (HT29 colon): 2.21 µM
- TGI (NCI-H460 lung): > 48.9 µM
- TGI (K-562 leukemia): > 100 µM
- TGI (EKVX NSCLC): > 100 µM
- TGI (UO-31 renal): > 100 µM
- TGI (M14 melanoma): > 100 µM
- TGI (OVCAR-3 ovarian): 56.9 µM
- TGI (HCC-2998 colon): > 100 µM
- TGI (MOLT-4 leukemia): > 100 µM
- TGI (SN12C renal): > 100 µM

SMILES: O[C@@H]1CCC[C@@H]2NC[C@@H](c3ccc4c(c3)OCO4)[C@H]12
- TGI (SK-MEL-28 melanoma): > 100 µM
- TGI (786-0 renal): > 100 µM
- TGI (ACHN renal): > 100 µM
- TGI (HT29 colon): > 100 µM
- TGI (NCI-H460 lung): > 100 µM
- TGI (K-562 leukemia): > 100 µM
- TGI (EKVX NSCLC): > 100 µM
- TGI (UO-31 renal): > 100 µM
- TGI (M14 melanoma): > 100 µM
- TGI (OVCAR-3 ovarian): > 100 µM
- TGI (UACC-257 melanoma): > 100 µM
- TGI (HCC-2998 colon): > 100 µM
- TGI (MOLT-4 leukemia): > 100 µM

SMILES: Cc1ccc(S(=O)(=O)C2=c3nc4ccccc4cc3=C3C(=O)c4ccccc4C(=O)C32)cc1 (stereo unspecified)
- TGI (SK-MEL-28 melanoma): > 100 µM
- TGI (786-0 renal): > 100 µM
- TGI (ACHN renal): > 100 µM
- TGI (NCI-H460 lung): > 100 µM
- TGI (K-562 leukemia): > 100 µM
- TGI (EKVX NSCLC): > 100 µM
- TGI (UO-31 renal): > 100 µM
- TGI (M14 melanoma): > 100 µM
- TGI (OVCAR-3 ovarian): > 100 µM
- TGI (UACC-257 melanoma): > 100 µM
- TGI (HCC-2998 colon): > 100 µM
- TGI (MOLT-4 leukemia): > 100 µM
- TGI (SN12C renal): > 100 µM

SMILES: C=CCOC(OCC=C)/C(Br)=C/C
- TGI (SK-MEL-28 melanoma): > 100 µM
- TGI (786-0 renal): 34 µM
- TGI (ACHN renal): 45.3 µM
- TGI (HT29 colon): 62.3 µM
- TGI (NCI-H460 lung): > 100 µM
- TGI (K-562 leukemia): > 100 µM
- TGI (EKVX NSCLC): > 100 µM
- TGI (UO-31 renal): > 100 µM
- TGI (M14 melanoma): > 100 µM
- TGI (OVCAR-3 ovarian): > 100 µM
- TGI (UACC-257 melanoma): > 100 µM
- TGI (HCC-2998 colon): > 100 µM
- TGI (SN12C renal): > 100 µM

SMILES: COc1c(Br)cc2ccccc2c1-c1c(OC)c(Br)cc2ccccc12
- TGI (SK-MEL-28 melanoma): > 100 µM
- TGI (786-0 renal): > 100 µM
- TGI (ACHN renal): > 100 µM
- TGI (HT29 colon): > 100 µM
- TGI (NCI-H460 lung): > 100 µM
- TGI (K-562 leukemia): > 100 µM
- TGI (EKVX NSCLC): > 100 µM
- TGI (UO-31 renal): > 100 µM
- TGI (M14 melanoma): > 100 µM
- TGI (OVCAR-3 ovarian): > 100 µM
- TGI (UACC-257 melanoma): > 100 µM
- TGI (HCC-2998 colon): > 100 µM
- TGI (MOLT-4 leukemia): > 100 µM
